In the NIST ThermoML archive (doi:10.1016/j.fluid.2017.08.022):

Conditions: for mass density: 100 kPa, Liquid, Buoyancy - hydrostatic balance with magnetic suspension - one sinker

CCn1cc[n+](C)c1.[Cl-] [1-ethyl-3-methylimidazolium chloride]
Conditions | mass density [kg/m3]
313.38 K | 1134.76
318.3 K | 1132.06
323.25 K | 1129.33
328.1 K | 1126.5
333.15 K | 1124.02
338.1 K | 1120.96
342.86 K | 1118.28
347.66 K | 1115.32
353.21 K | 1112.21
359.06 K | 1109.07
364.85 K | 1106.29

surface tension liquid-gas [mN/m]
Conditions | Ring tensiometer | Wilhelmy Plate
333.2 K | 62.56 | 62.6
338.15 K | 62.12 | –
338.24 K | – | 62.26
343.38 K | 62.16 | 61.82
348.57 K | – | 61.51
348.58 K | 61.59 | –
353.3 K | 61.45 | –
353.32 K | – | 61.1
358.44 K | 60.8 | –
358.5 K | – | 60.64
364.76 K | 60.05 | –
364.96 K | – | 60.2

Cl.Cn1ccnc1 [1-methylimidazolium chloride]
Conditions | mass density [kg/m3]
333.65 K | 1195.33
338.68 K | 1192.04
343.7 K | 1187.98
347.72 K | 1186.51
353.06 K | 1184.13
359.06 K | 1180.78
363.86 K | 1177.41

surface tension liquid-gas [mN/m]
Conditions | Ring tensiometer | Wilhelmy Plate
333.66 K | 67.02 | –
333.67 K | – | 66.84
338.7 K | 66.37 | 66.5
343.19 K | – | 66.13
343.24 K | 66.48 | –
348.1 K | 66.18 | –
348.11 K | – | 65.78
352.35 K | – | 65.4
352.38 K | 65.96 | –
359.12 K | 65.47 | –
359.17 K | – | 64.87
363.94 K | 65.12 | –
364 K | – | 64.58

CCC[n+]1ccn(C)c1.[Cl-] [1-methyl-3-propylimidazolium chloride]
surface tension liquid-gas [mN/m]
Conditions | Ring tensiometer | Wilhelmy Plate
308.21 K | 56.7 | –
313.04 K | – | 55.61
313.07 K | 56.45 | –
318.32 K | 56.27 | –
318.34 K | – | 55.41
323.54 K | 55.92 | 54.98
328.41 K | – | 54.7
328.46 K | 55.49 | –
333.49 K | – | 54.42
333.5 K | 55.37 | –
337.95 K | – | 54.09
338 K | 54.98 | –
343.39 K | – | 53.8
343.45 K | 54.58 | –
348.34 K | – | 53.59
348.39 K | 54.3 | –
353.07 K | – | 53.29
353.11 K | 54.07 | –
358.45 K | – | 52.95
358.5 K | 53.69 | –
363.91 K | 53.27 | –
364.37 K | – | 52.57

Conditions | mass density [kg/m3]
308.26 K | 1103.45
313.1 K | 1100.71
318.25 K | 1097.5
323.58 K | 1094.84
328.52 K | 1091.95
333.54 K | 1089.17
338.03 K | 1086.64
343.46 K | 1083.12
348.39 K | 1080.73
353.12 K | 1078.37
358.51 K | 1075.69
363.89 K | 1071.76

CCCCCCCCCCn1cc[n+](C)c1.[Cl-] [1-decyl-3-methylimidazolium chloride]
Conditions | surface tension liquid-gas [mN/m]
317.84 K, Ring tensiometer | 27.09
323.12 K, Wilhelmy Plate | 26.44
323.14 K, Ring tensiometer | 26.85
328.25 K, Wilhelmy Plate | 26.12
328.26 K, Ring tensiometer | 26.45
333.1 K, Wilhelmy Plate | 25.87
333.13 K, Ring tensiometer | 26.14
338.32 K, Wilhelmy Plate | 25.57
338.37 K, Ring tensiometer | 25.54
342.9 K, Wilhelmy Plate | 25.37
342.95 K, Ring tensiometer | 25.7
348.09 K, Wilhelmy Plate | 25.15
348.13 K, Ring tensiometer | 25.61
353.32 K, Wilhelmy Plate | 24.85
353.33 K, Ring tensiometer | 24.76
358.44 K, Wilhelmy Plate | 24.59
358.57 K, Ring tensiometer | 24.5

Conditions | mass density [kg/m3]
317.88 K | 973.64
323.19 K | 970.69
328.33 K | 968.07
333.2 K | 964.94
338.44 K | 962.23
343.26 K | 958.59
348.19 K | 956.59
353.38 K | 953.42
358.17 K | 950.62
363.44 K | 947.62

CCCCCCn1cc[n+](C)c1.[Cl-] [1-hexyl-3-methylimidazolium chloride]
surface tension liquid-gas [mN/m]
Conditions | Ring tensiometer | Wilhelmy Plate
303.19 K | 39.83 | –
303.22 K | – | 39.37
308.21 K | – | 39.15
308.22 K | 39.58 | –
312.93 K | – | 38.95
312.95 K | 39.37 | –
318.33 K | 39.1 | 38.69
323.1 K | – | 38.45
323.12 K | 38.84 | –
328.18 K | – | 38.17
328.2 K | 38.54 | –
333.27 K | – | 37.94
333.31 K | 38.3 | –
338.68 K | – | 37.66
338.71 K | 37.97 | –
343.01 K | – | 37.44
343.06 K | 37.74 | –
348.1 K | – | 37.16
348.15 K | 37.52 | –
353.53 K | – | 36.93
353.63 K | 37.19 | –
358.12 K | – | 36.68
358.24 K | 37 | –
363.07 K | – | 36.42
363.17 K | 36.72 | –

Conditions | mass density [kg/m3]
303.22 K | 1035.05
308.25 K | 1032.18
313 K | 1029.5
318.38 K | 1026.54
323.18 K | 1023.64
328.31 K | 1020.97
333.34 K | 1017.64
338.73 K | 1014.46
343.06 K | 1011.76
348.19 K | 1009.28
353.71 K | 1006.44
358.14 K | 1004
363.17 K | 1001.49

CCCCn1cc[n+](C)c1.[Cl-] [1-butyl-3-methylimidazolium chloride]
surface tension liquid-gas [mN/m]
Conditions | Ring tensiometer | Wilhelmy Plate
303.11 K | 50.32 | –
308.23 K | – | 49.64
308.27 K | 50.3 | –
313.06 K | – | 49.26
313.07 K | 49.73 | –
318.04 K | 49.68 | –
318.07 K | – | 48.97
323.1 K | 49.23 | 48.58
327.9 K | – | 48.24
327.96 K | 48.8 | –
333.82 K | – | 47.81
333.85 K | 48.35 | –
338.23 K | 48.24 | –
338.28 K | – | 47.55
342.85 K | 47.76 | –
343.23 K | – | 47.16
348.79 K | 47.38 | –
348.85 K | – | 46.9
353.81 K | – | 46.5
353.87 K | 47.16 | –
357.26 K | – | 46.29
357.34 K | 46.88 | –
364.83 K | 46.46 | –
364.9 K | – | 45.76

Conditions | mass density [kg/m3]
313.05 K | 1073.4
318.21 K | 1070.57
323.11 K | 1067.9
328.37 K | 1065.5
334.27 K | 1062.01
338.89 K | 1059.46
343.88 K | 1056.78
349.01 K | 1054.21
353.91 K | 1051.34
357.34 K | 1049.12
364.78 K | 1044.98
